Experimental data taken from PMC11448233, “High-throughput screening identification of apigenin that reverses the colistin resistance of mcr-1-positive pathogens” (Microbiology Spectrum, 2024).

Assays:
mcr-1 protein [1] = target: T1, mcr-1 protein (Escherichia coli, UniProt A0A0R6L508); test: microscale thermophoresis; type: binding
T1 construct: gene mcr1; mcr-1 amplified from K. pneumoniae ZJ02, pET28a(+) NheI/XhoI, E. coli BL21(DE3), Ni-NTA; tag removal not mentioned

mcr-1 protein [2] = target: T1, mcr-1 protein; test: nano differential scanning fluorimetry; type: binding; details: apigenin 32 µg/mL, mcr-1 100 µg/mL, PBS, 20 min incubation, 25-95 °C at 5 °C/min; Tm lowered (destabilised)

T1 sequence (A0A0R6L508 whole entry): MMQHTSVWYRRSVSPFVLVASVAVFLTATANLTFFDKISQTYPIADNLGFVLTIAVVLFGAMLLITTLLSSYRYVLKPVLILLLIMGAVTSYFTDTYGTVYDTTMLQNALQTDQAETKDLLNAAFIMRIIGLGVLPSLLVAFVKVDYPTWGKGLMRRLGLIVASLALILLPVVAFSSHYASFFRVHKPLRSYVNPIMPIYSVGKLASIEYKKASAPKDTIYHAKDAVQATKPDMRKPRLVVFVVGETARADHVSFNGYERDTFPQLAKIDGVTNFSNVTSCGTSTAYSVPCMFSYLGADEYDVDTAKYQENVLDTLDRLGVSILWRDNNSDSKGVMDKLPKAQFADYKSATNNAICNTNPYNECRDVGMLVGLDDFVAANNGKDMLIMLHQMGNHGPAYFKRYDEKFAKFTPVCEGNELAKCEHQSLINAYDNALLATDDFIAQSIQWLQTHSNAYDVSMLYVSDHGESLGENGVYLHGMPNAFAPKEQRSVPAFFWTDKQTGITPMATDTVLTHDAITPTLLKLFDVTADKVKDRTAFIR

**Q.** What does the source list for `O=c1cc(-c2ccc(O)cc2)oc2cc(O)cc(O)c12` [apigenin]?
**A.** Kd (mcr-1 protein [1]): 4.35 µM; Tm decrease (mcr-1 protein [2]): 5.7 °C
